{"source": "the supplement of paper PMC10307832", "assay_in_all_cases": "relative viability (nuclei count vs DMSO), 5 days (fraction); higher = more cells survive", "key": {"BEN": {"tested_on": "BEN", "outline": "(§1)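 Each reported value is a median over duplicate plates. It expresses relative viability: treated-well nuclei count divided by vehicle-well nuclei count. Lung cancer cell lines in 1536-well plates were dosed by pin tool a day after seeding, alone with one drug or with a fixed anchor-drug dose plus five library-drug doses (not always all listed) in √10 steps, and nuclei were counted after 5 days.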"}, "HCC-15": {"tested_on": "HCC-15", "outline": "as §1"}, "HCC-78": {"tested_on": "HCC-78", "outline": "as §1"}, "LC-2-ad": {"tested_on": "LC-2-ad", "outline": "as §1"}, "LCLC-97TM1": {"tested_on": "LCLC-97TM1", "outline": "as §1"}, "LK-2": {"tested_on": "LK-2", "outline": "as §1"}, "LU99A": {"tested_on": "LU99A", "outline": "as §1"}, "LXF-289": {"tested_on": "LXF-289", "outline": "as §1"}, "NCI-H1651": {"tested_on": "NCI-H1651", "outline": "as §1"}, "NCI-H1666": {"tested_on": "NCI-H1666", "outline": "as §1"}, "NCI-H1944": {"tested_on": "NCI-H1944", "outline": "as §1"}, "NCI-H2087": {"tested_on": "NCI-H2087", "outline": "as §1"}, "NCI-H322M": {"tested_on": "NCI-H322M", "outline": "as §1"}, "NCI-H358": {"tested_on": "NCI-H358", "outline": "as §1"}, "NCI-H596": {"tested_on": "NCI-H596", "outline": "as §1"}, "NCI-H650": {"tested_on": "NCI-H650", "outline": "as §1"}, "NCI-H661": {"tested_on": "NCI-H661", "outline": "as §1"}, "NCI-H838": {"tested_on": "NCI-H838", "outline": "as §1"}, "PC-3 [JPC-3]": {"tested_on": "PC-3 [JPC-3]", "outline": "as §1"}, "SK-MES-1": {"tested_on": "SK-MES-1", "outline": "as §1"}, "UMC-11": {"tested_on": "UMC-11", "outline": "as §1"}}}
{"smiles": "O=C(O)c1ccc(-c2c[nH]c3ncc(-c4ccccc4)cc23)cc1C1CCCC1", "note": "+ Cc1nc(NC(=O)N2CCC[C@H]2C(N)=O)sc1-c1ccnc(C(C)(C)C(F)(F)F)c1 [Alpelisib] (partner 2 µM)", "values": [{"measurement": "relative viability", "setting": "BEN; first compound 0.04 µM", "result": 1.28}, {"measurement": "relative viability", "setting": "BEN; first compound 0.1265 µM", "result": 1.07}, {"measurement": "relative viability", "setting": "BEN; first compound 0.4 µM", "result": 1.01}, {"measurement": "relative viability", "setting": "BEN; first compound 1.265 µM", "result": 0.913}, {"measurement": "relative viability", "setting": "HCC-15; first compound 0.04 µM", "result": 0.956}, {"measurement": "relative viability", "setting": "HCC-15; first compound 0.1265 µM", "result": 0.837}, {"measurement": "relative viability", "setting": "HCC-15; first compound 0.4 µM", "result": 0.849}, {"measurement": "relative viability", "setting": "HCC-15; first compound 1.265 µM", "result": 0.49}, {"measurement": "relative viability", "setting": "HCC-78; first compound 0.04 µM", "result": 0.397}, {"measurement": "relative viability", "setting": "HCC-78; first compound 0.1265 µM", "result": 0.361}, {"measurement": "relative viability", "setting": "HCC-78; first compound 0.4 µM", "result": 0.456}, {"measurement": "relative viability", "setting": "HCC-78; first compound 1.265 µM", "result": 0.321}, {"measurement": "relative viability", "setting": "LC-2-ad; first compound 0.04 µM", "result": 0.86}, {"measurement": "relative viability", "setting": "LC-2-ad; first compound 0.1265 µM", "result": 0.906}, {"measurement": "relative viability", "setting": "LC-2-ad; first compound 0.4 µM", "result": 0.827}, {"measurement": "relative viability", "setting": "LC-2-ad; first compound 1.265 µM", "result": 0.573}, {"measurement": "relative viability", "setting": "LCLC-97TM1; first compound 0.04 µM", "result": 0.278}, {"measurement": "relative viability", "setting": "LCLC-97TM1; first compound 0.1265 µM", "result": 0.313}, {"measurement": "relative viability", "setting": "LCLC-97TM1; first compound 0.4 µM", "result": 0.239}, {"measurement": "relative viability", "setting": "LCLC-97TM1; first compound 1.265 µM", "result": 0.264}, {"measurement": "relative viability", "setting": "LK-2; first compound 0.04 µM", "result": 1.23}, {"measurement": "relative viability", "setting": "LK-2; first compound 0.1265 µM", "result": 0.612}, {"measurement": "relative viability", "setting": "LK-2; first compound 0.4 µM", "result": 1.19}, {"measurement": "relative viability", "setting": "LK-2; first compound 1.265 µM", "result": 1.08}, {"measurement": "relative viability", "setting": "LU99A; first compound 0.04 µM", "result": 0.597}, {"measurement": "relative viability", "setting": "LU99A; first compound 0.1265 µM", "result": 0.615}, {"measurement": "relative viability", "setting": "LU99A; first compound 0.4 µM", "result": 0.485}, {"measurement": "relative viability", "setting": "LU99A; first compound 1.265 µM", "result": 0.425}, {"measurement": "relative viability", "setting": "LXF-289; first compound 0.04 µM", "result": 0.979}, {"measurement": "relative viability", "setting": "LXF-289; first compound 0.1265 µM", "result": 1.05}, {"measurement": "relative viability", "setting": "LXF-289; first compound 0.4 µM", "result": 0.756}, {"measurement": "relative viability", "setting": "LXF-289; first compound 1.265 µM", "result": 0.286}, {"measurement": "relative viability", "setting": "NCI-H1651; first compound 0.04 µM", "result": 0.977}, {"measurement": "relative viability", "setting": "NCI-H1651; first compound 0.1265 µM", "result": 1.02}, {"measurement": "relative viability", "setting": "NCI-H1651; first compound 0.4 µM", "result": 0.613}, {"measurement": "relative viability", "setting": "NCI-H1651; first compound 1.265 µM", "result": 0.713}, {"measurement": "relative viability", "setting": "NCI-H1666; first compound 0.04 µM", "result": 0.965}, {"measurement": "relative viability", "setting": "NCI-H1666; first compound 0.1265 µM", "result": 0.897}, {"measurement": "relative viability", "setting": "NCI-H1666; first compound 0.4 µM", "result": 0.892}, {"measurement": "relative viability", "setting": "NCI-H1666; first compound 1.265 µM", "result": 0.367}, {"measurement": "relative viability", "setting": "NCI-H1944; first compound 0.04 µM", "result": 0.871}, {"measurement": "relative viability", "setting": "NCI-H1944; first compound 0.1265 µM", "result": 0.94}, {"measurement": "relative viability", "setting": "NCI-H1944; first compound 0.4 µM", "result": 0.833}, {"measurement": "relative viability", "setting": "NCI-H1944; first compound 1.265 µM", "result": 0.745}, {"measurement": "relative viability", "setting": "NCI-H2087; first compound 0.04 µM", "result": 1.01}, {"measurement": "relative viability", "setting": "NCI-H2087; first compound 0.1265 µM", "result": 1.06}, {"measurement": "relative viability", "setting": "NCI-H2087; first compound 0.4 µM", "result": 1.08}, {"measurement": "relative viability", "setting": "NCI-H2087; first compound 1.265 µM", "result": 0.844}, {"measurement": "relative viability", "setting": "NCI-H322M; first compound 0.04 µM", "result": 0.979}, {"measurement": "relative viability", "setting": "NCI-H322M; first compound 0.1265 µM", "result": 1}, {"measurement": "relative viability", "setting": "NCI-H322M; first compound 0.4 µM", "result": 0.834}, {"measurement": "relative viability", "setting": "NCI-H322M; first compound 1.265 µM", "result": 0.703}, {"measurement": "relative viability", "setting": "NCI-H358; first compound 0.04 µM", "result": 0.767}, {"measurement": "relative viability", "setting": "NCI-H358; first compound 0.1265 µM", "result": 0.904}, {"measurement": "relative viability", "setting": "NCI-H358; first compound 0.4 µM", "result": 0.708}, {"measurement": "relative viability", "setting": "NCI-H358; first compound 1.265 µM", "result": 0.381}, {"measurement": "relative viability", "setting": "NCI-H596; first compound 0.04 µM", "result": 0.492}, {"measurement": "relative viability", "setting": "NCI-H596; first compound 0.1265 µM", "result": 0.427}, {"measurement": "relative viability", "setting": "NCI-H596; first compound 0.4 µM", "result": 0.484}, {"measurement": "relative viability", "setting": "NCI-H596; first compound 1.265 µM", "result": 0.402}, {"measurement": "relative viability", "setting": "NCI-H650; first compound 0.04 µM", "result": 1.19}, {"measurement": "relative viability", "setting": "NCI-H650; first compound 0.1265 µM", "result": 1.13}, {"measurement": "relative viability", "setting": "NCI-H650; first compound 0.4 µM", "result": 0.928}, {"measurement": "relative viability", "setting": "NCI-H650; first compound 1.265 µM", "result": 0.737}, {"measurement": "relative viability", "setting": "NCI-H661; first compound 0.04 µM", "result": 0.48}, {"measurement": "relative viability", "setting": "NCI-H661; first compound 0.1265 µM", "result": 0.676}, {"measurement": "relative viability", "setting": "NCI-H661; first compound 0.4 µM", "result": 0.675}, {"measurement": "relative viability", "setting": "NCI-H661; first compound 1.265 µM", "result": 0.703}, {"measurement": "relative viability", "setting": "NCI-H838; first compound 0.04 µM", "result": 1.08}, {"measurement": "relative viability", "setting": "NCI-H838; first compound 0.1265 µM", "result": 1.13}, {"measurement": "relative viability", "setting": "NCI-H838; first compound 0.4 µM", "result": 1.11}, {"measurement": "relative viability", "setting": "NCI-H838; first compound 1.265 µM", "result": 1.02}, {"measurement": "relative viability", "setting": "PC-3 [JPC-3]; first compound 0.04 µM", "result": 1.05}, {"measurement": "relative viability", "setting": "PC-3 [JPC-3]; first compound 0.1265 µM", "result": 1.03}, {"measurement": "relative viability", "setting": "PC-3 [JPC-3]; first compound 0.4 µM", "result": 1.04}, {"measurement": "relative viability", "setting": "PC-3 [JPC-3]; first compound 1.265 µM", "result": 0.89}, {"measurement": "relative viability", "setting": "SK-MES-1; first compound 0.04 µM", "result": 0.83}, {"measurement": "relative viability", "setting": "SK-MES-1; first compound 0.1265 µM", "result": 1.01}, {"measurement": "relative viability", "setting": "SK-MES-1; first compound 0.4 µM", "result": 0.834}, {"measurement": "relative viability", "setting": "SK-MES-1; first compound 1.265 µM", "result": 0.803}, {"measurement": "relative viability", "setting": "UMC-11; first compound 0.04 µM", "result": 0.938}, {"measurement": "relative viability", "setting": "UMC-11; first compound 0.1265 µM", "result": 1.06}, {"measurement": "relative viability", "setting": "UMC-11; first compound 0.4 µM", "result": 1.02}, {"measurement": "relative viability", "setting": "UMC-11; first compound 1.265 µM", "result": 0.929}]}
